Read-outs that look alike come from different tables or passages of the source.
Columns and labels:
[1] = molecular target: T1, urease (Canavalia ensiformis, UniProt P07374); conditions: cited from earlier work
[2] = molecular target: T1, urease; assay: biochemical
Method: The indophenol method as outlined by Weatherburn was employed to assess urease activity by measuring the produced ammonia. Briefly, incubation of the reaction mixture was carried out at 37 degrees Celsius for half an hour on the microplate reader with 96-well plates. The operated mixture consisted of 20 microliters of the enzyme (from 5 units per ml of stock solution), 20 µL of the tested compound (5 mg/mL stock solution), and 50 microliters of the buffer solution. Thiourea was employed as a reference inhibitor, and percentage inhibition was calculated by […].

[3] = ref [36], read-out: IC50 (urease)

T1 sequence (P07374 whole entry, looked up): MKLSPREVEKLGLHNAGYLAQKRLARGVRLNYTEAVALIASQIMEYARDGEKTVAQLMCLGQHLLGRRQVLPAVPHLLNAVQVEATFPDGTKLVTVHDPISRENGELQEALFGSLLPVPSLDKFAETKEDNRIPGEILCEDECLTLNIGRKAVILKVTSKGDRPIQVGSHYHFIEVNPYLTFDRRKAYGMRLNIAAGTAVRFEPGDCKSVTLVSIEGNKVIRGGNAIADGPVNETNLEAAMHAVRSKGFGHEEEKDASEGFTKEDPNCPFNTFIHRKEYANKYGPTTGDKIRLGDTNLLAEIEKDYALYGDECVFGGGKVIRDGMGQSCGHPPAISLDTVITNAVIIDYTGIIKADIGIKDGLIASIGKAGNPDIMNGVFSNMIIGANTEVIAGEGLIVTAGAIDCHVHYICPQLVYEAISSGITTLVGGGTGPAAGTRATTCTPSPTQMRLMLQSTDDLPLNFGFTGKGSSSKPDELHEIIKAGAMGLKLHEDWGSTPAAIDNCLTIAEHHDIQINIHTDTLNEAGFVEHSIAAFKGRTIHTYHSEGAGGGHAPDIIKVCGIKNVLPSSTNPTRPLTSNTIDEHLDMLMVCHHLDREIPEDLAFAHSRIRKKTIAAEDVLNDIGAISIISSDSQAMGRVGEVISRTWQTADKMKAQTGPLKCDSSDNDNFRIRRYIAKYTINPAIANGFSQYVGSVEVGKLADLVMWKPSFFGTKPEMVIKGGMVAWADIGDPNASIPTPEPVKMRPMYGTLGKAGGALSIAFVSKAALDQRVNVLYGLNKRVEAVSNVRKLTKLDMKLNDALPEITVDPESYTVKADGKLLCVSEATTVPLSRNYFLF

In the case of `NC(=O)NO` [Hydroxyurea], the IC50 [1, 3] is given as 100 µM.
In the case of `Nn1c(-c2ccncc2)n[nH]c1=S` [Compound C00005], the IC50 ([1]; read-out: IC50 (urease), ref [39]) is given as > 100 µM.
`COc1ccc(-c2n[nH]c(=O)n2/N=C/c2cccc(/C=N/n3c(-c4ccc(OC)cc4)n[nH]c3=O)n2)cc1` [Compound 6, 4,4′-((1E,1′E)-(Pyridine-2,6-diylbis(methanylylidene))bis(azanylylidene))bis(3-(4-methoxyphenyl)-1H-1,2,4-triazol-5(4H)-one)] gave a melting point of 181 to 183 °C and an IC50 [2] of 21.8 ± 1.88 µM.
In the case of `Nn1c(SCC(=O)O)nnc1-c1ccncc1` [HL], the IC50 ([1]; read-out: IC50 (urease), ref [37]) is given as 15.1 ± 2.22 µM.
For `NC(N)=S` [Thiourea], the IC50 ([2]; indophenol method, 37 degrees Celsius, half an hour, thiourea as reference, read-out: Urease Inhibition IC50) is given as 20.7 µM, the IC50 ([1]; ref [35], read-out: IC50 (urease)) is given as 22 µM and the IC50 [1, 3] is given as 23 µM.
For `CC(=O)NO` [Acetohydroxamic acid], the IC50 ([1]; ref [37], read-out: IC50 (urease)) is listed as 7.9 µM and the IC50 ([1]; unit inferred, ref [39], read-out: IC50 (urease), reference drug) is listed as 32.1 µM.
In the case of `Nn1c(SCC(=O)O)nnc1-c1ccccn1` [Compound H2L], the IC50 ([1]; read-out: IC50 (urease), ref [38]) is given as 14.7 ± 1.4 µM.
